As usually defined, the IC50 is the concentration that gives 50% inhibition. A low value points to greater potency in that assay. The term inhibition denotes the percentage by which the read-out fell short of the control. Read a high inhibition as a strong effect.

Calls of active or inactive are those of the source. No cut-off for these calls is given here.

Experiment [1] has as its target T1, DNA topoisomerase 2-alpha (Homo sapiens, UniProt P11388). In words: Inhibition of human DNA topoisomerase 2alpha.
The target of experiment [2] is T1, DNA topoisomerase 2-alpha. Description: Inhibition of human DNA topoisomerase 2alpha at 200 uM.
Experiment [3] is filed under the species Homo sapiens. Description: Inhibition of human DNA topoisomerase 1 at 200 uM.

T1 sequence (P11388 whole entry): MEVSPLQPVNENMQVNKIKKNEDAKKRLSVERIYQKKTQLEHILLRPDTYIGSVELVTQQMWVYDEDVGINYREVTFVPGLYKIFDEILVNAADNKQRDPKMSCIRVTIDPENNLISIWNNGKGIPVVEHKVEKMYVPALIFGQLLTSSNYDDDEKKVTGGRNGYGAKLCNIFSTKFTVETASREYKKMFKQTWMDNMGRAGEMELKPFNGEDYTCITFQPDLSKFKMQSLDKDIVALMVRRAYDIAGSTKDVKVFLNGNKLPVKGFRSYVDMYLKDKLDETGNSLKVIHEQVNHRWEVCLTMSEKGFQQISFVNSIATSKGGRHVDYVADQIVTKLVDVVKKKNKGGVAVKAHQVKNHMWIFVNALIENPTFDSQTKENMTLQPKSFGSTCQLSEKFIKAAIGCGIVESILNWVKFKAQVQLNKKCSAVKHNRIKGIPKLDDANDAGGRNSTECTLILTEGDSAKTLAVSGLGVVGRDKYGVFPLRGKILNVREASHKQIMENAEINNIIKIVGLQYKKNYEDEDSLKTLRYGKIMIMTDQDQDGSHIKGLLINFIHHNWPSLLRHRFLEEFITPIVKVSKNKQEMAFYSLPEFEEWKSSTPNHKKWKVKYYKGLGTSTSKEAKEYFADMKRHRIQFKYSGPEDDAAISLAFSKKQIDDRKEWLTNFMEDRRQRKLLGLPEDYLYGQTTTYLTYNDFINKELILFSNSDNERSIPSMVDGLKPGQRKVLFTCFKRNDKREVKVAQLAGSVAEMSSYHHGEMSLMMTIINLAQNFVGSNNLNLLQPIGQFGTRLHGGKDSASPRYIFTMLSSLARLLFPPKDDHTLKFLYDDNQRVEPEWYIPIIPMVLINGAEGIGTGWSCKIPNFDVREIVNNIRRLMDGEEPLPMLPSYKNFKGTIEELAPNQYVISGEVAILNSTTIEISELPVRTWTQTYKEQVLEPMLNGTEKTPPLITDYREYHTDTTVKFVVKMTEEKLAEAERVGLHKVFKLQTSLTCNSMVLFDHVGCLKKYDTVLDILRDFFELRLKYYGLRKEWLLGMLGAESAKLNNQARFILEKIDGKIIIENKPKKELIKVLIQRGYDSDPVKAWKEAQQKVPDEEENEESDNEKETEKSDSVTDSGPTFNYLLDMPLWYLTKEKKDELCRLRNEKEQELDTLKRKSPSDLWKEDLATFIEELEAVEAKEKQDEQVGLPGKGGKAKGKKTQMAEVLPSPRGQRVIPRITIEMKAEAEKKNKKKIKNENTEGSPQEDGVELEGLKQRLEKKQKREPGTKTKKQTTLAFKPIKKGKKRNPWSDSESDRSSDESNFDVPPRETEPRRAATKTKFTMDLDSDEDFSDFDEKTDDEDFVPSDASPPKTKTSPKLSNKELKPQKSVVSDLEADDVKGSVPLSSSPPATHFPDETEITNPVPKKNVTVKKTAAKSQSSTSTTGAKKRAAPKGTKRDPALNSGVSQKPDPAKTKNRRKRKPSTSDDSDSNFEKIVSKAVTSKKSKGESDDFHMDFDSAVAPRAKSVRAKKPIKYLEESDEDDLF

As for `C=C(C)[C@@H]1CC=C2[C@@H](CC[C@]3(C)[C@@H]([C@H](C)CC(=O)C[C@@H](C)C(=O)OC)CC[C@@]23C)[C@@]1(C)CCC(=O)OC`, in experiment [1], the Activity result was “Dose-dependent effect” and the IC50 worked out at 67.3 µM. For the same molecule, the result in experiment [2] was Active. Also, the result in experiment [3] was inactive.
`C=C(C)[C@@H]1CC=C2[C@@H](CC[C@]3(C)[C@@H]([C@H](C)CC(=O)C[C@@H](C)C(=O)O)CC[C@@]23C)[C@@]1(C)CCC(=O)O` came in with an inhibition in experiment [2] of 4%. Also, the outcome in experiment [3] was inactive.
For `C=C(C)[C@@H]1CC=C2[C@@H](CC[C@]3(C)[C@@H]([C@H](C)C[C@H](O)C[C@@H](C)CO)CC[C@@]23C)[C@@]1(C)CCCO`, in experiment [1], the Activity entry is “Dose-dependent effect” and the IC50 came to 50.4 µM. The result in experiment [2] was Active. Besides, the outcome in experiment [3] was inactive.
In the same order, the values of `C=C(C)[C@@H]1CC=C2[C@@H](CC[C@]3(C)[C@@H]([C@H](C)C[C@@H]4C[C@@H](C)C(=O)O4)CC[C@@]23C)[C@@]1(C)CCC(=O)OC` are “Dose-dependent effect”, 75.7 µM, “Active” and “inactive”.
For `C=C(C)[C@@H]1CC=C2[C@@H](CC[C@]3(C)[C@@H]([C@H](C)C[C@@H]4C[C@@H](C)C(=O)O4)CC[C@@]23C)[C@@]1(C)CCC(=O)O` the same measures were “Dose-dependent effect”, 42.6 µM, “Active” and “inactive”.

The values above are taken from ChEMBL document CHEMBL1150134, “Triterpenoid constituents isolated from the bark of Abies sachalinensis” (J Nat Prod, 2002).
